Assay results published in EP4725946A1, “IRAK4 DEGRADATION AGENT AND USE THEREOF” (Guangzhou Unirise Pharmaceutical Co., Ltd., priority 2023, dated 2024).
Read-outs that look alike come from different tables or passages of the source.

Assays:
[1] = Pharmacokinetic study in mice; format: in vivo; conditions: male mice, plasma
Protocol: Six male mice weighing 20-30 g were randomly divided into two groups. One group received an intravenous (IV) administration of the test compound at a dose of 2 mg/kg, while the other group received an oral (gavage) administration at a dose of 10 mg/kg. Blood samples were collected at 0.083, 0.25, 0.5, 1, 2, 4, 6, 8, and 24 hours post-administration. Plasma samples were processed and analyzed using LC/MS/MS in MRM)mode. A validated standard curve was established for the quantitative determination of the target compound in plasma, enabling the generation of plasma drug concentration-time profiles. Pharmacokinetic parameters were calculated using WinNonlin software with a non-compartmental model.

IRAK4 protein = biological target: T1, IRAK4 protein (Homo sapiens, UniProt Q9NWZ3); assay: IRAK4 Degradation Assay in THP-1 Cells (Western Blot); format: cell-based; design: endogenous in cells; host or cells: THP-1 cells
T1 sequence (Q9NWZ3 1-460): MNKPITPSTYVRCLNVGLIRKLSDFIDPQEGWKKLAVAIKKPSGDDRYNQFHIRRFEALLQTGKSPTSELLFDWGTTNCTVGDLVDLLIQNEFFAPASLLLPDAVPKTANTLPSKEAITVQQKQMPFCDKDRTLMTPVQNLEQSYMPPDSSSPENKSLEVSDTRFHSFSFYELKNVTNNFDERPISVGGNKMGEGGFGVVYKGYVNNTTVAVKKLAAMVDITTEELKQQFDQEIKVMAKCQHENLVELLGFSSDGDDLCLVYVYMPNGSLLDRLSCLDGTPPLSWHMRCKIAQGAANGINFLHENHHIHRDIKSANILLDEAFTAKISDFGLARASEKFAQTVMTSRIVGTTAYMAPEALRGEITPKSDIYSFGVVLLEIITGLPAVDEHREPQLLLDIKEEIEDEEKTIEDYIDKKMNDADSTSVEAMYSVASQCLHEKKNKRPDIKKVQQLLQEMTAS
Protocol: In a 6-well cell culture plate, an appropriate number of THP-1 cells were seeded. The plate was placed in a 5% CO2 incubator at 37°C for overnight culture. Then, the test compound's dimethyl sulfoxide solution was added, with the final concentration ranging from 0.0128 to 1000 nM. After continuous culture for 24 hours, the culture medium was removed, and the cells were collected in a 1.5 mL centrifuge tube. After adding lysis buffer and grinding thoroughly, the mixture was placed on ice for 30 minutes. It was then centrifuged at 15,000 xg and 4°C for 20 minutes. The supernatant was taken, and the level of IRAK4 protein was detected by Western Blot.

[2] = THP-1, THP-1 cells, 24 hours, 0.0128 to 1000 nM, IRAK4 protein level by Western Blot, read-out: Dmax%
[3] = THP-1 cells, 24 hours, 0.0128 to 1000 nM, IRAK4 protein level by Western Blot, read-out: DC50
[4] = mouse, iv, i.v. (2 mg/kg), read-out: AUC0-t
[5] = mouse, po, p.o. (10 mg/kg), read-out: AUC0-t
[6] = mouse, po, p.o. (10 mg/kg), read-out: Cmax
[7] = THP-1 cells, 24 hours, 0.0128 to 1000 nM, IRAK4 protein level by Western Blot, read-out: Dmax%

Row | SMILES | AUC(0-t) ([1]; i.v. (2 mg/kg)) | T1/2 ([1]; i.v. (2 mg/kg)) | AUC(0-t) ([1]; p.o. (10 mg/kg)) | Cmax ([1]; p.o. (10 mg/kg)) | T1/2 ([1]; p.o. (10 mg/kg)) | Tmax ([1]; mouse, po, p.o. (10 mg/kg)) | DC50 (IRAK4 protein; [3]) | half-life ([1]; mouse, iv, i.v. (2 mg/kg)) | AUC(0-t) [1, 4] | half-life ([1]; mouse, po, p.o. (10 mg/kg)) | AUC(0-t) [1, 5] | Cmax [1, 6] | Dmax (IRAK4 protein; [7]) | Dmax (IRAK4 protein; [2]) | DC50 (IRAK4 protein) | Dmax (IRAK4 protein; THP-1)
1 | Cn1c(=O)n(C2CCC(=O)NC2=O)c2cccc(C#CCO[C@H]3CC[C@H](CN4CCC5(CC4)Cc4cc(NC(=O)c6cnn7cccnc67)c(N6CCC(CO)CC6)cc4O5)CC3)c21 (relative stereo) [Compound 34] | 7155 ng·h/mL | 2.69 h | 14793 ng·h/mL | 1540 ng/mL | 3.70 h | 2 h | 2.2 nM | – | – | – | – | – | – | 90.6% | – | –
2 | Cn1c(=O)n(C2CCC(=O)NC2=O)c2cccc(C#CCO[C@H]3CC[C@@H](CN4CCC5(CC4)Cc4cc(NC(=O)c6cnn7cccnc67)c(N6CCC(CO)CC6)cc4O5)CC3)c21 (relative stereo) [Compound 55] | – | – | – | – | – | 1 h | 3.44 nM | 3 h | 6190 ng·h/mL | 3.36 h | 10000 ng·h/mL | 1120 ng/mL | – | 89.3% | – | –
3 | Cn1c(=O)n(C2CCC(=O)NC2=O)c2cccc(CN3CCC(CCN4CCC5(CC4)Oc4cc(NC(=O)c6cnn7cccnc67)c(N6CCC(CO)CC6)cc4O5)CC3)c21 (stereo not shown) [Compound 15] | – | – | – | – | – | 6 h | 2.22 nM | 22.2 h | 14400 ng·h/mL | 23.6 h | 23200 ng·h/mL | 1320 ng/mL | 86% | – | – | –
4 | Cn1c(=O)n(C2CCC(=O)NC2=O)c2cccc(C#CCO[C@H]3CC[C@H](CN4CCC5(CC4)Cc4cc(NC(=O)c6cnc7cccnn67)c(N6CCC(CO)CC6)cc4O5)CC3)c21 (stereo partly shown) [Compound 45] | 3192 ng·h/mL | – | 7391 ng·h/mL | 1190 ng/mL | 4.40 h | 2 h | 1.52 nM | 2.02 h | – | – | – | – | 87.4% | – | – | –
5 | Cn1c(=O)n(C2CCC(=O)NC2=O)c2cccc(C#CCO[C@H]3CC[C@H](CN4CCC5(CC4)Cc4cc(NC(=O)c6cnn7cccnc67)c(N6CCC(O)CC6)cc4O5)CC3)c21 (stereo partly shown) [Compound 46] | 14148 ng·h/mL | 2.76 h | 42143 ng·h/mL | 3493 ng/mL | 3.82 h | 4 h | 1.37 nM | – | – | – | – | – | 87% | – | – | –
6 | Cn1c(=O)n(C2CCC(=O)NC2=O)c2cccc(N3CCN(C(=O)CN4CCC5(CC4)Cc4cc(NC(=O)c6cnn7cccnc67)c(N6CCC(CO)CC6)cc4O5)CC3)c21 (stereo not shown) [Compound 70] | – | – | – | – | – | 2 h | – | 3.1 h | 7880 ng·h/mL | 2.28 h | 6680 ng·h/mL | 870 ng/mL | – | – | 1.1 nM | 91.2%
7 | Cn1nc(N2CCC(=O)NC2=O)c2cc(F)c(N3CCC(O)(CC(=O)N4CCC5(CC4)Cc4cc(NC(=O)c6cnn7cccnc67)c(N6CCC(CO)CC6)cc4O5)CC3)cc21 [Example 77] | – | – | – | – | – | 1 h | 1.28 nM | 4.68 h | 12900 ng·h/mL | 3.85 h | 38200 ng·h/mL | 4830 ng/mL | – | 85.7% | – | –
8 | Cn1c(=O)n(C2CCC(=O)NC2=O)c2cccc(N3CCC(CCN4CCC5(CC4)Cc4cc(NC(=O)c6cnn7cccnc67)c(N6CCC(CO)CC6)cc4O5)CC3)c21 (stereo not shown) [Example 96] | – | – | – | – | – | – | 1.65 nM | – | – | – | – | – | – | 92% | – | –
9 | O=C1CCC(N2C(=O)c3cc(F)c(N4CCC(CN5CCC6(CC5)Cc5cc(NC(=O)c7cnn8cccnc78)c(N7CCC(CO)CC7)cc5O6)CC4)cc3C2=O)C(=O)N1 (stereo not shown) [Example 97] | – | – | – | – | – | – | 7.85 nM | – | – | – | – | – | – | 87.9% | – | –
10 | Cn1c(=O)n(C2CCC(=O)NC2=O)c2cccc(C3CCC(CN4CCC5(CC4)Cc4cc(NC(=O)c6cnn7cccnc67)c(N6CCC(CO)CC6)cc4O5)CC3)c21 (stereo not shown) [Example 98] | – | – | – | – | – | – | 1.1 nM | – | – | – | – | – | – | 88.6% | – | –

Now from value to molecule, other results behind:

Row | AUC(0-t) ([1]; i.v. (2 mg/kg)) | T1/2 ([1]; i.v. (2 mg/kg)) | AUC(0-t) ([1]; p.o. (10 mg/kg)) | Cmax ([1]; p.o. (10 mg/kg)) | T1/2 ([1]; p.o. (10 mg/kg)) | Tmax ([1]; mouse, po, p.o. (10 mg/kg)) | DC50 (IRAK4 protein; [3]) | half-life ([1]; mouse, iv, i.v. (2 mg/kg)) | AUC(0-t) [1, 4] | half-life ([1]; mouse, po, p.o. (10 mg/kg)) | AUC(0-t) [1, 5] | Cmax [1, 6] | Dmax (IRAK4 protein; [7]) | SMILES | Dmax (IRAK4 protein; [2]) | DC50 (IRAK4 protein) | Dmax (IRAK4 protein; THP-1)
11 | 10556 ng·h/mL | – | 23388 ng·h/mL | – | 4.34 h | 2 h | 4.69 nM | 3.78 h | – | – | – | 2070 ng/mL | 93.4% | Cn1c(=O)n(C2CCC(=O)NC2=O)c2cccc(C#CCO[C@H]3CC[C@H](CN4CCC5(CC4)Cc4cc(NC(=O)c6coc7cccnc67)c(N6CCC(CO)CC6)cc4O5)CC3)c21 (stereo partly shown) [Compound 35] | – | – | –
12 | – | – | – | – | – | 2 h | 2.27 nM | 2.84 h | 8730 ng·h/mL | 3.22 h | 18000 ng·h/mL | 1740 ng/mL | 86.5% | Cc1cnc2c(C(=O)Nc3cc4c(cc3N3CCC(CO)CC3)OC3(CCN(C[C@H]5CC[C@H](OCC#Cc6cccc7c6n(C)c(=O)n7C6CCC(=O)NC6=O)CC5)CC3)C4)cnn2c1 (stereo partly shown) [Compound 36] | – | – | –
13 | – | – | – | – | – | 4 h | 3.32 nM | 3.36 h | 12100 ng·h/mL | 3.94 h | 29300 ng·h/mL | 2150 ng/mL | 90.5% | Cn1c(=O)n(C2CCC(=O)NC2=O)c2cccc(C#CCO[C@H]3CC[C@H](CN4CCC5(CC4)Cc4cc(NC(=O)c6cnn7cc(Cl)cnc67)c(N6CCC(CO)CC6)cc4O5)CC3)c21 (stereo partly shown) [Compound 37] | – | – | –
14 | 11671 ng·h/mL | 4.07 h | 26962 ng·h/mL | 2277 ng/mL | 4.27 h | 4 h | 2.81 nM | – | – | – | – | – | 88.8% | Cn1c(=O)n(C2CCC(=O)NC2=O)c2cccc(C#CCO[C@H]3CC[C@H](CN4CCC5(CC4)Cc4cc(NC(=O)c6cnn7cc(F)cnc67)c(N6CCC(CO)CC6)cc4O5)CC3)c21 (stereo partly shown) [Compound 38] | – | – | –
15 | – | – | – | – | – | 2 h | 3.86 nM | 2.13 h | 5120 ng·h/mL | 2.62 h | 21200 ng·h/mL | 2990 ng/mL | 90.5% | Cn1c(=O)n(C2CCC(=O)NC2=O)c2cccc(C#CCO[C@H]3CC[C@H](CN4CCC5(CC4)Cc4cc(NC(=O)c6cnn7cccnc67)c(N6CCC(C(C)(C)O)CC6)cc4O5)CC3)c21 (stereo partly shown) [Compound 41] | – | – | –
16 | – | – | – | – | – | – | 6.02 nM | – | – | – | – | – | 84.6% | Cc1cc(-c2nc(C(=O)Nc3cc4c(cc3N3CCC(CO)CC3)OC3(CCN(C[C@H]5CC[C@H](OCC#Cc6cccc7c6n(C)c(=O)n7C6CCC(=O)NC6=O)CC5)CC3)C4)co2)ccn1 (stereo partly shown) [Example 89] | – | – | –
17 | – | – | – | – | – | – | 2.24 nM | – | – | – | – | – | 87.1% | Cn1c(=O)n(C2CCC(=O)NC2=O)c2cccc(C#CCO[C@H]3CC[C@H](CN4CCC5(CC4)Cc4cc(NC(=O)c6cnn7cc(CO)cnc67)c(N6CCC(CO)CC6)cc4O5)CC3)c21 (stereo partly shown) [Example 90] | – | – | –
